Blank lines part the entries; values can stand above or below the compound they belong to.
Tests used:
[1] = target: T1, GXMT1 (Arabidopsis thaliana, UniProt Q9LQ32); test: GXMT1 methyltransferase activity monitored by 1H NMR (GlcA methylation of gxmt1-1 glucuronoxylan); type: biochemical
T1 construct: made in house; host or cells: E. coli BL21-CodonPlus (DE3)-RIPL, pGEX-5X1 vector
T1 sequence (Q9LQ32 44-297): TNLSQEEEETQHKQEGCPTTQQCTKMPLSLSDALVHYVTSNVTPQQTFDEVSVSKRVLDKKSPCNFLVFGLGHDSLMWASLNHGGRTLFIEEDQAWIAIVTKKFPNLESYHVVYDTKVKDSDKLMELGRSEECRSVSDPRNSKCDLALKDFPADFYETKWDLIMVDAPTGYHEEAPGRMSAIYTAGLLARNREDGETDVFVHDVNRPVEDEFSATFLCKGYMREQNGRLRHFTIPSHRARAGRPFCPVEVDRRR
Protocol: FIG. 12. […] After 48 hours the products formed were treated with endoxylanase and the resulting oligosaccharides were characterized by ^1H NMR spectroscopy. The extent of GlcA methylation was determined by integration of the GlcA (U) and 4-O-methyl GlcA (M) H1 signals (see FIG. 1B).
Determination of Methyltransferase Activity using ^1H-NMR Spectroscopy and LC-ESI-MS. The temperature optimum for GXMT1 activity was between 19-25° C. (FIG. 10C). The transfer of methyl groups to O-4 of GlcA was established by ^1H NMR spectroscopy. Assays were performed at 23° C. in 50 mM potassium bicarbonate, pH 7.5, (250 μL) containing acceptor substrate equivalent to 2.27 mM available GlcA residues, recombinant GXMT1 (10 μM), CoCl2 (2 mM) and 1.5 mM S-adenosyl-L-methionine sulfate p-toluenesulfonate, unless otherwise indicated. The formation of SAH from SAM was determined using LC-ESI-MS (Salyan et al., 2006, Anal Biochem 349:112-117). […] Details of both assays are in Example 2.
Monitoring methyltransferase activity by ^1H-NMR spectroscopy. […] The dry reaction products were dissolved in 0.25 mL D2O and analyzed by ^1H-NMR spectroscopy. Spectra were recorded before and after endoxylanase treatment, when polymeric xylan was used as a substrate.

[2] = target: T1, GXMT1; test: GXMT1 4-O-methyltransferase activity of metal-depleted enzyme, SAH formation by LC-ESI-MS; type: biochemical; conditions: for effect on GXMT1 enzyme activity: metal salts or EDTA at 1 mM, metal-depleted GXMT1
Protocol: The transfer of a methyl group from SAM to GlcA results in the formation of S-adenosyl homocysteine (SAH). The amounts of SAH formed were determined by LC-ESI-MS (Salyan et al., 2006, Anal Biochem 349:112-117). (B) The effect on GXMT activity of different divalent metals. Protein and buffer solutions were treated with Chelex-100 resin to remove divalent cations prior to initiating the methylation reaction. Metal salts or EDTA were used at a concentration of 1 mM. […] Reaction mixtures were allowed to equilibrate to the specified temperature for 30 min and then the methylation reaction was initiated by the addition of SAMe (15 mM).
Determination of methyltransferase activity using LC-ESI-MS. Glucuronoxylan 4-O-methyltransferase activity was determined using a liquid chromatography-electrospray ionization/mass spectroscopy (LC-ESI-MS) method using selective reaction monitoring (SRM) that measures the formation of S-adenosylhomocysteine from SAM (S17). LC-ESI-MS analyses were performed on a LTQ-XL linear ion trap mass spectrometer (ThermoFisher, Waltham, Mass.) equipped with a Surveyor MS Pump Plus HPLC, a Surveyor Autosampler Plus. Chromatographic separation was as described (Salyan et al., 2006, Anal Biochem 349:112-117). S-adenosylhomocysteine (SAH) eluted at 3.2 min. Thus, the material eluting between 2.5 and 5 min was transferred to the mass spectrometer using an in-line divert/inject valve. The selected reaction monitoring transition used was 385.1>250.1 with a collision energy of 20%. The detection limit was 60.25 nM S-adenosylhomocysteine with a linear response up to 3 μM. […]

reduction of O-methyl transferase activity ([1]; 1.5 mM SAH with SAM, 10 μM GXMT1, 48 hours): over 50%
effect on in vitro GXMT1 activity ([1]; SAH added at the start of the reaction): inhibited
SMILES: Nc1ncnc2c1ncn2[C@@H]1O[C@H](CSCC[C@H](N)C(=O)O)[C@@H](O)[C@H]1O [SAH, S-adenosyl-L-homocysteine]

SMILES: O=C(O)CN(CCN(CC(=O)O)CC(=O)O)CC(=O)O [EDTA]
effect on GXMT1 enzyme activity [2]: completely inhibited

effect on GXMT1 enzyme activity [2]: completely inhibited
SMILES: [Cu+2] [Cu^2+]

SMILES: [Cl-].[Cl-].[Co+2] [Co^2+]
enhancement of GXMT1 activity ([2]; metal salts at 1 mM, metal-depleted GXMT1 3.4 μM, 180 min, average): 1,180%

From patent US20140331363A1, “PLANTS WITH ALTERED GLUCURONOXYLAN METHYL TRANSFERASE ACTIVITY AND METHODS OF USE” (UNIVERSITY OF GEORGIA RESEARCH FOUNDATION, INC., priority 2011, published 2014)
